Experimental data: publication PMC9917560, “Design, Synthesis and Antimicrobial Evaluation of New N-(1-Hydroxy-1,3-dihydrobenzo[c][1,2]oxaborol-6-yl)(hetero)aryl-2-carboxamides as Potential Inhibitors of Mycobacterial Leucyl-tRNA Synthetase” (International Journal of Molecular Sciences, 2023)
In brackets after ≈: the same amount, converted by molar mass. Read-outs that look alike come from different tables or passages of the source. Marks after values point to notes of the source that are not given here.

Columns and labels:
Mtb H37Rv = system: Mtb H37Rv; design: method as in PMID 27503647; details: compounds synthesized and evaluated by Palencia et al. ref [13]; cited from earlier work
[1] = system: Mycobacterium tuberculosis H37Ra ITM-M006710 (ATCC 9431); assay: Antimycobacterial microdilution (resazurin) vs Mtb H37Ra; assay type: cell-based; details: Middlebrook 7H9, resazurin, recalculated from µg/mL, read-out: MIC Mtb H37Ra
[2] = system: Mycobacterium tuberculosis H37Rv CNCTC My 331/88 (ATCC 27294); assay: Microplate Alamar Blue assay vs Mtb H37Rv; assay type: cell-based; details: Mycobacterium tuberculosis, pH 6.6, MABA, Middlebrook 7H9 pH 6.6, recalculated from µg/mL; read-out: MIC Mtb H37Rv
[3] = system: Mycobacterium kansasii DSM 44,162 (ATCC 12478); assay: Antimycobacterial microdilution (resazurin) vs M. kansasii; assay type: cell-based; details: Middlebrook 7H9, resazurin, read-out: MIC M. kansasii
[4] = system: Mycobacterium avium DSM 44,156 (ATCC 25291); assay: Antimycobacterial microdilution (resazurin) vs M. avium; assay type: cell-based; details: Mycobacterium avium, Middlebrook 7H9, resazurin; read-out: MIC M. avium
[5] = system: Mycolicibacterium aurum DSM 43,999 (ATCC 23366); assay: Antimycobacterial microdilution (resazurin) vs M. aurum; assay type: cell-based; details: Middlebrook 7H9, resazurin, read-out: MIC M. aurum
[6] = system: Mycolicibacterium smegmatis DSM 43,465 (ATCC 607); assay: Antimycobacterial microdilution (resazurin) vs M. smegmatis; assay type: cell-based; details: Middlebrook 7H9, resazurin, read-out: MIC M. smeg.
[7] = system: Mtb IZAK (MDR clinical isolate); assay: microbe, parasite or virus in culture; assay type: cell-based; details: Mycobacterium tuberculosis, read-out: MIC Mtb IZAK
[8] = system: Mtb MATI (MDR clinical isolate); assay: microbe, parasite or virus in culture; assay type: cell-based; details: Mycobacterium tuberculosis, read-out: MIC Mtb MATI
[9] = system: Staphylococcus aureus subsp. aureus CCM 4223 (ATCC 29213); assay: Antibacterial microdilution broth (EUCAST); assay type: cell-based; details: read-out: MIC Staphylococcus aureus subsp. aureus
[10] = system: methicillin-resistant Staphylococcus aureus subsp. aureus (MRSA) CCM 4750 (ATCC 43300); assay: microbe, parasite or virus in culture; assay type: cell-based; details: read-out: MIC Methicillin-resistant Staphylococcus aureus subsp. aureus
[11] = system: Staphylococcus epidermidis CCM 4418 (ATCC 12228); assay: Antibacterial microdilution broth (EUCAST); assay type: cell-based; details: read-out: MIC Staphylococcus epidermidis
[12] = system: Enterococcus faecalis CCM 4224 (ATCC 29212); assay: Antibacterial microdilution broth (EUCAST); assay type: cell-based; details: read-out: MIC Enterococcus faecalis
[13] = system: Escherichia coli CCM 3954 (ATCC 25922); assay: Antibacterial microdilution broth (EUCAST); assay type: cell-based; details: Escherichia coli, read-out: MIC Escherichia coli
[14] = system: Klebsiella pneumoniae CCM 4415 (ATCC 10031); assay: Antibacterial microdilution broth (EUCAST); assay type: cell-based; details: Klebsiella pneumoniae, read-out: MIC Klebsiella pneumoniae
[15] = system: Acinetobacter baumannii DSM 30007 (ATCC 19606); assay: Antibacterial microdilution broth (EUCAST); assay type: cell-based; details: read-out: MIC Acinetobacter baumannii
[16] = system: Pseudomonas aeruginosa CCM 3955 (ATCC 27853); assay: Antibacterial microdilution broth (EUCAST); assay type: cell-based; details: read-out: MIC Pseudomonas aeruginosa
[17] = system: Candida albicans CCM 8320 (ATCC 24433); assay: Antifungal microdilution broth (EUCAST); assay type: cell-based; details: Candida albicans, read-out: MIC Candida albicans
[18] = system: Candida krusei CCM 8271 (ATCC 6258); assay: Antifungal microdilution broth (EUCAST); assay type: cell-based; details: Pichia kudriavzevii, read-out: MIC Candida krusei
[19] = system: Candida parapsilosis CCM 8260 (ATCC 22019); assay: Antifungal microdilution broth (EUCAST); assay type: cell-based; details: Lodderomyces parapsilosis, read-out: MIC Candida parapsilosis
[20] = system: Candida tropicalis CCM 8264 (ATCC 750); assay: Antifungal microdilution broth (EUCAST); assay type: cell-based; details: read-out: MIC Candida tropicalis
[21] = system: Aspergillus fumigatus ATCC 204305; assay: Antifungal microdilution broth (EUCAST); assay type: cell-based; details: Aspergillus fumigatus, ATCC204305, read-out: MIC Aspergillus fumigatus
[22] = system: Aspergillus flavus CCM 8363; assay: Antifungal microdilution broth (EUCAST); assay type: cell-based; details: Aspergillus flavus, CCM8363, read-out: MIC Aspergillus flavus
[23] = system: Lichtheimia corymbifera CCM 8077; assay: Antifungal microdilution broth (EUCAST); assay type: cell-based; details: Lichtheimia corymbifera, CCM8077, read-out: MIC Lichtheimia corymbifera
[24] = system: Trichophyton interdigitale CCM 8377 (ATCC 9533); assay: Antifungal microdilution broth (EUCAST); assay type: cell-based; details: Trichophyton interdigitale, read-out: MIC Trichophyton interdigitale
HepG2 cell line = assay: Cytotoxicity screening, CellTiter 96 assay; details: Homo sapiens, HepG2, 24 h, read-out: IC50 HepG2

3-aminomethylbenzoxaborole [Compound C00022]
MIC Mtb H37Rv (Mtb H37Rv): 11.04 * µM

O=C(Nc1ccc2c(c1)B(O)OC2)c1cncc(Cl)n1 [Compound 4, 6-chloro-N-(1-hydroxy-1,3-dihydrobenzo[c][1,2]oxaborol-6-yl)pyrazine-2-carboxamide]
MIC [1]: 108 µM (≈ 31.3 µg/mL) | MIC [2]: 86.4 µM (≈ 25 µg/mL) | MIC [3]: 27 µM (≈ 7.81 µg/mL) | MIC [4]: 27 µM (≈ 7.81 µg/mL) | MIC [5]: 13.5 µM (≈ 3.91 µg/mL) | MIC [6]: 27 µM (≈ 7.81 µg/mL) | MIC [7]: 86.4 µM (≈ 25 µg/mL) | MIC [8]: 86.4 µM (≈ 25 µg/mL) | MIC ([9]; 24h incubation): 125 µM (≈ 36.2 µg/mL) | MIC ([9]; 48h incubation): 125 µM (≈ 36.2 µg/mL) | MIC ([10]; 24 h): 250 µM (≈ 72.4 µg/mL) | MIC ([10]; 48 h): 250 µM (≈ 72.4 µg/mL) | MIC ([11]; 24h incubation): 500 µM (≈ 145 µg/mL) | MIC ([11]; 48h incubation): 500 µM (≈ 145 µg/mL) | MIC ([12]; 24h incubation): > 500 µM | MIC ([12]; 48h incubation): > 500 µM | MIC ([13]; 24h incubation): > 500 µM | MIC ([13]; 48h incubation): > 500 µM | MIC ([14]; 24h incubation): > 500 µM | MIC ([14]; 48h incubation): > 500 µM | MIC ([15]; 24h incubation): > 500 µM | MIC ([15]; 48h incubation): > 500 µM | MIC ([16]; 24h incubation): > 500 µM | MIC ([16]; 48h incubation): > 500 µM | MIC ([17]; 24h incubation): > 500 µM | MIC ([17]; 48h incubation): > 500 µM | MIC ([18]; 24h incubation): > 500 µM | MIC ([18]; 48h incubation): > 500 µM | MIC ([19]; 24h incubation): > 500 µM | MIC ([19]; 48h incubation): > 500 µM | MIC ([20]; 24h incubation): > 500 µM | MIC ([20]; 48h incubation): > 500 µM | MIC ([21]; 24h incubation): > 500 µM | MIC ([21]; 48h incubation): > 500 µM | MIC ([22]; 24h incubation): > 500 µM | MIC ([22]; 48h incubation): > 500 µM | MIC ([23]; 24h incubation): > 500 µM | MIC ([23]; 48h incubation): > 500 µM | MIC ([24]; 72h incubation): > 500 µM | MIC ([24]; 120h incubation): > 500 µM | melting point: 250.9 to 252.4 °C | IC50 (HepG2 cell line): > 1000 µM

O=C(Nc1ccc2c(c1)B(O)OC2)c1cnc(Cl)cn1 [Compound 5, 5-chloro-N-(1-hydroxy-1,3-dihydrobenzo[c][1,2]oxaborol-6-yl)pyrazine-2-carboxamide]
MIC [1]: 27 µM (≈ 7.81 µg/mL) | MIC [2]: 21.6 µM (≈ 6.25 µg/mL) | MIC [3]: 108 µM (≈ 31.3 µg/mL) | MIC [4]: 54 µM (≈ 15.6 µg/mL) | MIC [5]: 13.5 µM (≈ 3.91 µg/mL) | MIC [6]: 54 µM (≈ 15.6 µg/mL) | MIC [7]: 43.2 µM (≈ 12.5 µg/mL) | MIC [8]: 43.2 µM (≈ 12.5 µg/mL) | MIC ([9]; 24h incubation): > 500 µM | MIC ([9]; 48h incubation): > 500 µM | MIC ([10]; 24 h): > 500 µM | MIC ([10]; 48 h): > 500 µM | MIC ([11]; 24h incubation): > 500 µM | MIC ([11]; 48h incubation): > 500 µM | MIC ([12]; 24h incubation): > 500 µM | MIC ([12]; 48h incubation): > 500 µM | MIC ([13]; 24h incubation): > 500 µM | MIC ([13]; 48h incubation): > 500 µM | MIC ([14]; 24h incubation): > 500 µM | MIC ([14]; 48h incubation): > 500 µM | MIC ([15]; 24h incubation): > 500 µM | MIC ([15]; 48h incubation): > 500 µM | MIC ([16]; 24h incubation): > 500 µM | MIC ([16]; 48h incubation): > 500 µM | MIC ([17]; 24h incubation): > 500 µM | MIC ([17]; 48h incubation): > 500 µM | MIC ([18]; 24h incubation): > 500 µM | MIC ([18]; 48h incubation): > 500 µM | MIC ([19]; 24h incubation): > 500 µM | MIC ([19]; 48h incubation): > 500 µM | MIC ([20]; 24h incubation): > 500 µM | MIC ([20]; 48h incubation): > 500 µM | MIC ([21]; 24h incubation): > 500 µM | MIC ([21]; 48h incubation): > 500 µM | MIC ([22]; 24h incubation): > 500 µM | MIC ([22]; 48h incubation): > 500 µM | MIC ([23]; 24h incubation): > 500 µM | MIC ([23]; 48h incubation): > 500 µM | MIC ([24]; 72h incubation): > 500 µM | MIC ([24]; 120h incubation): > 500 µM | melting point: 233.8 to 235.3 °C | IC50 (HepG2 cell line): 82.4 µM
